# Results from patent US12624004B2 (Fudan University, priority 2019, dated 2026).
# Tested on: Female mice
# Assay: In vivo hot plate method analgesia test
# In short: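 Female mice (~20 g) on a 55° C hot plate, hindpaw response latency as pain threshold (pre-screen 5–30 s, 60 s cut-off). Latencies at 15, 30, 60 and 120 min after intraperitoneal dosing. %MPE = (post−pre latency)/(60−pre)×100, ED50 derived from %MPE.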
structure (smiles),measurement,setting,value
"COc1cccc(C2(O)CCCCC2CN(C)C)c1 (stereo not shown) [Tramadol, reference compound]",analgesic effect,"Table 1-2, hot plate, 5 mg/kg dose",no analgesic effect
same,Maximum percentage effective analgesic (% MPE),"Table 1-2, hot plate, 50 mg/kg dose",64.5%
same,analgesic effect,"Table 2-2, hot plate, at 5 mg/kg or 50 mg/kg dose",no analgesic effect
same,% MPE,"Table 2-2, hot plate, tramadol, dose of this value not clearly printed",64.5%
same,analgesic effect,"Table 3-2, hot plate, @10 mg/kg",no effective
same,% MPE,"Table 3-2, hot plate, @50 mg/kg",64.5%
same,analgesic effect,"Table 4-2, hot plate, 10 mg/kg dose",no analgesic effect
same,% MPE,"Table 4-2, hot plate, 50 mg/kg dose",64.5%
same,analgesic effect,"Table 5-2, hot plate, 10 mg/kg dose",no analgesic effect
same,Maximum percentage effective analgesia (% MPE),"Table 5-2, hot plate, 50 mg/kg dose",64.5%
